Measured values from patent US5171863A, “Intermediates for preparing 4-substituted 2-5(H)-furanones as anti-inflammatory agents” (Allergan, Inc., priority 1991, dated 1992).
Where two headings read alike, the source gives them in different places.

Key:
[1] = biological target: bee venom phospholipase A2 (Apis mellifera, UniProt P00630); assay: biochemical; conditions: read-out: IC50 (micromolar), Phospholipase A2 Assay
[2] = Isomerization upon standing; format: physicochemical
[3] = tested on: Calcium Channel; assay: Calcium Channel (mobilization) Inhibition Assay; format: cell-based
From the text: Calcium Channel (mobilization) Inhibition Assay
Polymorphonuclear leukocytes (PMNa), gastric glands, GH3 cells, A431 cells, spleen cells, human keratinocytes corneal cells, etc. were loaded with the Ca^2+ sensitive fluorescent dye, Fura-2. The appropriate cell type was chosen and the potency and efficacy of the anti-inflammatoryfuranones on calcium mobilization, calcium channel inhibition was quantitated. The methods used for A431 cells listed below are representative of those used for other cells.
A431 cells were detached using a 5-10 min trypsin-EDTA treatment whereas GH3 cells were treated 2 to 5 min with a 1% pancreatin solution. Cells were immediately washed twice in a 20 mM HEPES buffer (pH 7.4) containing 120 mM NaCl, 6 mM KCl, 1 mM MgSO4, 1 mg/ml glucose and 1 mg/ml pyruvate and 1.4 mM calcium (medium A). Approximately 5×10^6 cells were suspended in medium A and incubated with 4 uM fura-2-AM for 15 min at 37° C.
After washing the fura-2 loaded cells, the uptake of dye was checked using fluorescence microscopy and found to be evenly distributed in the cytosol of all cells. Fluorescence was continuously recorded with a Perkin-Elmer LS-5 spectrofluorometer. The excitation wavelength was set at 340 nm and emission wavelength set at 500 nm. The cell suspension was continually stirred, maintained at 37° C. and equilibrated for approximately 5 min before addition of various agents. [Ca^2+ i was calculated using the following formula: [formula]
All fluorescence values were measured relative to a EGTA-quenched signal determined as follows: F was the relative fluorescence measurement of the sample. Fmax was determined by lysing the cells with digitonin (100 ug/ml) in DMSO. After Fmax was determined the pH was adjusted to 8, with NaOH and Ca^2+ chelated with 3 mM EGTA to totally quench the fura-2 signal and obtain Fmin.
When quin-2- was used, cells were incubated with 10 uM quin-2- at 37° C. for 1 hour, washed and then used.
In the above-described phospholipase A2 (PLA2) and calcium^+ channel mobilization assays certain examplary compounds made from the synthetic intermediate compounds of the present invention had the following activities.

[4] = prior art; cited from earlier work
[5] = tested on: phosphoinositide-specific phospholipase C; conditions: reported, Bennett et al, Molecular Pharmacology 32:587-593 (1987); cited from earlier work
[6] = read-out: IC50 (umolar) (KCl regulated), Calcium Channel Inhibition Assay
[7] = read-out: IC50 (umolar) (TRH regulated), Calcium Channel Inhibition Assay

bee venom phospholipase A2, sequence (P00630 34-167 limits assumed): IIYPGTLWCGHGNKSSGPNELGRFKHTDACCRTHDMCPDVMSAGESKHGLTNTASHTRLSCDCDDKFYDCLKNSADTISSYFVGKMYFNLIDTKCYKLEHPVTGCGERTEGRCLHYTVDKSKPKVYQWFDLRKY

SMILES	IC50 [1]	other results
COCCOCOCC1=CC(=O)OC1O (stereo not drawn) [Compound 20]	> 1 µM	
CCCCCCCCCCCCP(=O)(O)OCC1=CC(=O)OC1O (stereo not drawn) [Compound 21, 4-(Dodecylohosphonyloxymethyl)-5-hydroxy-2(5H)-furanone]	0.03 µM	
CCCCCCCCCCCCNC(=O)OCC1=CC(=O)OC1O (stereo not drawn) [Compound 22, 4-(N-Dodecylcarbamoyloxymethyl)-5-hydroxy-2(5H)-furanone]	0.05 µM	
CCCCCCCCCCCCOCC1=CC(=O)OC1O (stereo not drawn) [Compound 23]	0.04 µM	
CCOP(=O)(OCC)OCC1=CC(=O)OC1O (stereo not drawn) [Compound 24, 4-1-(Diethylphosphoryloxy)methyl-5-hydroxy-2(5H)-furanone]	0.34 µM	
CCCCCCCCCCCC(=O)NCC1=CC(=O)OC1O (stereo not drawn) [Compound 25, 4-(N-Dodecanoylaminomethyl)-5-hydroxy-2(5H)-furanone]	0.26 µM	
CCCCCCCCCCCCNC(=O)NCC1=CC(=O)OC1O (stereo not drawn) [Compound 26, 4-(N-Dodecylureido)methyl-5-hydroxy-2(5H)-furanone]	0.13 µM	
CCCCCCCCCCCCS(=O)(=O)NCC1=CC(=O)OC1O (stereo not drawn) [Compound 27, 4-(N-Dodecylsulfonamido)-methyl-5-hydroxy-2(5H)-furanone]	0.04 µM	
CCCCCCCCCCCCC(OC(C)=O)C1=CC(=O)OC1O (stereo not drawn) [Compound 28, 4(1-Acetoxytridecyl)-5-hydroxy-2(5H)-furanone]	0.04 µM	
CCCCCCCCCCCCC(NC(C)=O)C1=CC(=O)OC1O (stereo not drawn) [Compound 29]	0.07 µM	
CCCCCCCCCCCCC(NC(=O)C(F)(F)F)C1=CC(=O)OC1O (stereo not drawn) [Compound 30]	0.06 µM	
CCCCCCCCCCCCC(NS(C)(=O)=O)C1=CC(=O)OC1O (stereo not drawn) [Compound 31]	0.05 µM	
CCCCCCCCCCCCC(NC(=O)NC)C1=CC(=O)OC1O (stereo not drawn) [Compound 32, 4-[-1-(N-methylureido)tridecyl]-5-hydroxy-2(5H)-furanone]	0.48 µM	
CCCCCCCCCCCC(=O)NCC(O)C1=CC(=O)OC1O (stereo not drawn) [Compound 40, 4-(2-Undecanylamido-1-hydroxy)ethyl-5-hydroxy-2(5H)-furanone]	0.28 µM	
CCCCCCCCCCCC(=O)NCC(OC(C)=O)C1=CC(=O)OC1O (stereo not drawn) [Compound 41, 4-(1-Acetoxy-2-undecanylamido)ethyl-5-hydroxy-2(5H)-furanone]	0.04 µM	
CCCCCCCCCCCC(=O)NCC(OC(=O)CCCCCCCCCCC)C1=CC(=O)OC1O (stereo not drawn) [Compound 42, 4-(2-Undecanylamido-1-dodecanoyloxy)ethyl-5-hydroxy-2(5H)-furanone]	0.03 µM	

SMILES	IC50 [1]	other results
CCCCCCCCCCCCS(=O)(=O)NCC(OC(C)=O)C1=CC(=O)OC1O (stereo not drawn) [Compound 43, 4-[1-Acetoxy-2-(dodecanesulfonylamido)ethyl]-5-hydroxy-2(5H)-furanone]	0.03 µM	
CC(=O)OC(CNC(=O)CCCCCCCCCCC(=O)O)C1=CC(=O)OC1O (stereo not drawn) [Compound 44]	0.09 µM	
CCCCCCCCCCCC(=O)OC(CNC(=O)N1CCN(S(C)(=O)=O)CC1)C1=CC(=O)OC1O (stereo not drawn) [Compound 45]	0.05 µM	
CCCCCCCCCCCC(=O)OC(CNC(=O)N(CC)CC)C1=CC(=O)OC1O (stereo not drawn) [Compound 46, 4-[1-Dodecanoyloxy-2-(N',N'-diethyl)carboxyamido]ethyl-5-hydroxy-2(5H)-furanone]	0.02 µM	
CCCCCCCCCCCCSCC1=CC(=O)OC1O (stereo not drawn) [Compound 47, 4-Dodecanethiomethyl-5-hydroxy-2(5H)-furanone]	0.06 µM	
CCCCCCCCCCCC(=O)OCCCC1=CC(=O)OC1O (stereo not drawn) [Compound 50]	0.5 µM	
CCCCCCCCOC(=O)C=CC1=CC(=O)OC1O (stereo not drawn) [Compound 51, Octyl 3-(5-hydroxy-2-on-4-furyl)propen-2-oate]	0.09 µM	
CCCCCCCCCCCCC(OC(C)=O)C1=CC(=O)OC1(C)O (stereo not drawn) [Compound 60, 4-(1-Acetoxytridecyl)-5-hydroxy-5-methyl-2-furanone]	0.06 µM	isomerization of epimers upon standing [2]: isomerizes upon standing
CCCCCCCCCCCCC(OC(C)=O)C1=C(C)C(=O)OC1O (stereo not drawn) [Compound 61, 4-(1-Acetoxytridecyl)-3-methyl-5-hydroxy-2(5H)-furanone]	> 1 µM	
CCCCCCCCCCCCC(OC(=O)Nc1ccccc1)C1=CC(=O)OC1(C)O (stereo not drawn) [Compound 62, 5-Methyl-5-hydroxy-4-(1-phenylcarbamoyloxy)tridecyl-2-furanone]	0.24 µM	
CCCCCCCCC(OC(C)=O)C1=CCOC1=O (stereo not drawn) [Compound 70, 3-(1-Acetoxynonyl)-2(5H)-furanone]		IC50 [3, 6]: 3.4 µM; IC50 [3, 7]: 4.9 µM
CCCCCCCCCCCCC(O)C1=CCOC1=O (stereo not drawn) [Compound 71, 3-(1-Hydroxytridecyl)-2(5H)-furanone]		IC50 [3, 6]: 1.1 µM; IC50 [3, 7]: 2 µM
CCCCCCCCCCCCC(OC(C)=O)C1=CCOC1=O (stereo not drawn) [Compound 72, 3-(1-Acetoxytridecyl)-2(5H)-furanone]		IC50 [3, 6]: 0.88 µM; IC50 [3, 7]: 16.9 µM
CC1=C(CC/C(C)=C/CCC(C=O)=CC=CC2=CC(=O)OC2O)C(C)(C)CCC1 (stereo not drawn) [dehydro-seco-manoalide]		anti-inflammatory, immunosuppressive and analgesic properties [4]: anti-inflammatory activity
CC1=C(CC/C(C)=C/CCC2=CCC(C3=CC(=O)OC3O)OC2O)C(C)(C)CCC1 (stereo not drawn) [manoalide, reference compound]		IC50 [3, 6]: 1 µM; IC50 [3, 7]: 1 µM; inhibition of phosphoinositide-specific phospholipase C [5]: inhibition of phosphoinositide-specific phospholipase C; anti-inflammatory, immunosuppressive and analgesic properties [4]: anti-inflammatory,immunosuppressive and analgesic properties
CC1=C(CC/C(C)=C/CCC(C=O)=CCC(O)C2=CC(=O)OC2O)C(C)(C)CCC1 (stereo not drawn) [seco-manoalide]		anti-inflammatory, immunosuppressive and analgesic properties [4]: anti-inflammatory activity
